Data from patent US5512566A, “Tricyclic compounds having affinity for the 5-HT1A receptor” (priority 1993, dated 1996).
Structures can show the parent of a compound that is named as a salt. Where two headings read alike, the source gives them in different places.

What was measured:
dopamine D2 = molecular target: T1, dopamine D2 (Rattus norvegicus, UniProt P61169); assay: Receptor Binding Assay, dopamine D2 (3H-spiperone, P2 fraction from striatum); set-up: species or system male, Wistar rats
T1 construct: P2 fraction (synaptosomal membranes) prepared from male, Wistar rats; from tissue; host or cells: rat (Wistar, male) striatum, P2 synaptosomal membranes
Protocol: The dopamine D2 and serotonin 5-HT1A binding activity of compounds was determined using a P2 fraction (synaptosomal membranes) prepared from male, Wistar rats. The D2 assay employed a P2 fraction from the striatum, the ligand ^3 H-spiperone at a concentration of 0.05 nM, and […] haloperidol as a blank determinant. […].
(§1) The data from each assay were analyzed by calculating the percent inhibition of the binding of the tritiated ligands by given concentrations of the test compound. KI values, where given, were obtained from the logit analysis of concentration-inhibition curves.

serotonin 5-HT1A = molecular target: T2, serotonin 5-HT1A (Rattus norvegicus, UniProt P19327); assay: Receptor Binding Assay, serotonin 5-HT1A (3H-8-hydroxy-DPAT, P2 fraction from cerebral cortex); set-up: species or system male, Wistar rats; details: known drugs, 3H-8-hydroxy-DPAT 3 nM, pH 7.5, 20 min, 25° C., read-out: KI values for some known drugs, 5-HT1A assay
T2 construct: P2 fraction (synaptosomal membranes) prepared from male, Wistar rats; from tissue; host or cells: rat (Wistar, male) cerebral cortex, P2 synaptosomal membranes
T2 sequence (P19327 1-422): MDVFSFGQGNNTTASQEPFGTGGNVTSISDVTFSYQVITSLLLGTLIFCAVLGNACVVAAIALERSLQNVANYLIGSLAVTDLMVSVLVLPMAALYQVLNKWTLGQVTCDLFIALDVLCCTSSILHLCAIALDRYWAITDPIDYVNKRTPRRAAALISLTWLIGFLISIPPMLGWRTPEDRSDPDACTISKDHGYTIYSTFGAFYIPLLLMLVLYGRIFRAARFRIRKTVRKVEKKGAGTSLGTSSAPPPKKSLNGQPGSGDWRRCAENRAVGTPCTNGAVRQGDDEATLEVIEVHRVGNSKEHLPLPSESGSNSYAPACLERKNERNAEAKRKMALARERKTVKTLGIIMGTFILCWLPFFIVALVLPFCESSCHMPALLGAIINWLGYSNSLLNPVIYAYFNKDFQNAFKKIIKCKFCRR
Protocol: The dopamine D2 and serotonin 5-HT1A binding activity of compounds was determined using a P2 fraction (synaptosomal membranes) prepared from male, Wistar rats.
as §1

[1] = 3H-spiperone 0.05 nM, rat striatum P2 fraction, pH 7.5, 45 min, 37° C., read-out: Receptor Binding, Ki, D-2

T1 sequence (P61169 whole entry): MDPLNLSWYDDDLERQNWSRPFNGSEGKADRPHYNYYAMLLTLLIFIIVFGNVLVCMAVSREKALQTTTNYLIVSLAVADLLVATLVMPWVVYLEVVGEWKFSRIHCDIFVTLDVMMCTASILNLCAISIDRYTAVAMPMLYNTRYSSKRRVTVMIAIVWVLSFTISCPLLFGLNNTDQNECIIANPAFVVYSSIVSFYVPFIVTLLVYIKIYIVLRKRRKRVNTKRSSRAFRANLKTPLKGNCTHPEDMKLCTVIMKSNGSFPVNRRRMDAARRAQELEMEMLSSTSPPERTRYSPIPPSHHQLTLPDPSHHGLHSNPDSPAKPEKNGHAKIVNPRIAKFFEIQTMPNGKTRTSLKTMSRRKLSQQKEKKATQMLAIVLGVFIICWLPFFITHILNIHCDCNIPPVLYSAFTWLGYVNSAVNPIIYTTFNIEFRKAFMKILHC

Ki (dopamine D2; [1]) | SMILES | Ki (dopamine D2) | other results
– | O=C(c1cccc(CN2CCc3c([nH]c4ccccc34)C2)c1)N1CCCCC1 [Compound 9, 1-(3-(2-(1,2,3,4-Tetrahydro-9H-pyrido(3,4-b)indolyl)methyl)-benzoyl)piperidine Monooxalate 0.3 Hydrate] | 374 nM | –
– | O=C(c1cccc(CN2CCc3c([nH]c4ccccc34)C2)c1)N1CCc2ccccc21 [Compound 11, 1-(3-(2-(1,2,3,4-Tetrahydro-9H-pyrido(3.4-b)indolyl)methyl)benzoyl)indoline Monofumarate] | > 1000 nM | –
> 1000 nM | O=C(c1cccc(CN2CCN3c4ccccc4OCC3C2)c1)N1CCCCC1 (centres unmarked) [Compound 13, 1-(3-(1-(1,2,3,4,4a,5-hexahydropyrazino(1.2-c)-1,4-benzoxazinyl)methyl)benzoyl)pipridine Sesquioxalate] | – | –
> 1000 nM | O=C(c1cccc(CN2CCN3c4ccccc4OCC3C2)c1)N1CCc2ccccc21 (centres unmarked) [Compound 14, 1-(3-(3-(1,2,3,4,4a,5-Hexahydropyrazino(1,2-c)-1,4-benzoxazinyl)methyl)benzoyl)iondoline 1.2 Oxalate] | – | –
– | Cc1ccc(N(CC2=NCCN2)c2cccc(O)c2)cc1 [phentolamine] | – | Ki (serotonin 5-HT1A): 59 nM
